{"source": "paper PMC3425516", "about": "(PLoS ONE, 2012)", "key": {"HCT116 cells": {"system": "HCT116 cells", "assay": "Flow cytometry cell cycle / sub-G1 analysis", "format": "cell-based, human", "procedure": "After centrifugation, cells were incubated in 0.1 mol/L phosphate-citric acid buffer [0.2 mol/L NaHPO4, 0.1 mol/L citric acid (pH 7.8)] for 20 min at room temperature. Then, the cells were centrifuged and resuspended with 0.5 mL PI solution containing Triton X-100 (0.1%, v/v), RNase (100 µg/mL), and PI (80 µg/mL). DNA content was analyzed with the FACScan and CellQuest software (Becton Dickinson)."}, "HUVEC": {"system": "HUVEC", "assay": "Crystal violet cell growth assay", "format": "cell-based, human", "procedure": "The HUVECs were seeded into 96-well culture plates (5000 cells/well) in quadruplicate. After 24 h incubation, cells were fixed with 0.1% crystal violet/20% methanol, representing cell population at the time of drug treatment (T 0). […] After 48 h incubation at 37°C, cells were stained with 0.1% crystal violet/20% methanol for 10 minutes and washed for 3 times."}, "[1]": {"system": "human HCT116 colorectal cancer xenograft", "assay": "HCT116 xenograft, tumor growth delay to 1,200 mm^3 endpoint", "format": "in vivo, nude mice", "settings": "for No. of CR (complete regression): 8 mice per group; for %TGD (tumor growth delay): [(T-C)/C]×100; for T-C: median TTE treated versus control", "procedure": "The human HCT116 colorectal adenocarcinoma cells used for implantation were harvested during log phase growth and resuspended in phosphate-buffered saline at 5×10^7 cells/mL. Each mouse was injected s.c. in the right flank with 1.0×10^7 cells (0.2 mL cell suspension). Tumors were monitored twice weekly and then daily as their volumes approached 1,200 mm^3. Tumor size, in mm^3, was calculated from: where w = width and l = length in mm of the tumor. Tumor volume = (w^2×l)/2.\nThe logrank test was used to determine the statistical significance of the difference between the TTE values of two groups, except any NTR deaths. […] The two-tailed statistical analyses were conducted at P = 0.05. Kaplan-Meier plots show the percentage of animals remaining in the study versus time. The Kaplan-Meier plots use the same data set as the logrank test.\nOnce a tumor was palpable with the size of approximately 55 mm^3, mice were randomized into vehicle control and treatment groups (8 mice per group). Control mice received the vehicle (0.5% carboxymethyl cellulose +0.1% Tween 80). Tumors in all 3 groups were allowed to reach an endpoint volume of 1,200 mm^3."}, "recombinant human HDAC6": {"target": "recombinant human HDAC6 (Homo sapiens, UniProt Q9UBN7)", "sequence (Q9UBN7 whole entry)": "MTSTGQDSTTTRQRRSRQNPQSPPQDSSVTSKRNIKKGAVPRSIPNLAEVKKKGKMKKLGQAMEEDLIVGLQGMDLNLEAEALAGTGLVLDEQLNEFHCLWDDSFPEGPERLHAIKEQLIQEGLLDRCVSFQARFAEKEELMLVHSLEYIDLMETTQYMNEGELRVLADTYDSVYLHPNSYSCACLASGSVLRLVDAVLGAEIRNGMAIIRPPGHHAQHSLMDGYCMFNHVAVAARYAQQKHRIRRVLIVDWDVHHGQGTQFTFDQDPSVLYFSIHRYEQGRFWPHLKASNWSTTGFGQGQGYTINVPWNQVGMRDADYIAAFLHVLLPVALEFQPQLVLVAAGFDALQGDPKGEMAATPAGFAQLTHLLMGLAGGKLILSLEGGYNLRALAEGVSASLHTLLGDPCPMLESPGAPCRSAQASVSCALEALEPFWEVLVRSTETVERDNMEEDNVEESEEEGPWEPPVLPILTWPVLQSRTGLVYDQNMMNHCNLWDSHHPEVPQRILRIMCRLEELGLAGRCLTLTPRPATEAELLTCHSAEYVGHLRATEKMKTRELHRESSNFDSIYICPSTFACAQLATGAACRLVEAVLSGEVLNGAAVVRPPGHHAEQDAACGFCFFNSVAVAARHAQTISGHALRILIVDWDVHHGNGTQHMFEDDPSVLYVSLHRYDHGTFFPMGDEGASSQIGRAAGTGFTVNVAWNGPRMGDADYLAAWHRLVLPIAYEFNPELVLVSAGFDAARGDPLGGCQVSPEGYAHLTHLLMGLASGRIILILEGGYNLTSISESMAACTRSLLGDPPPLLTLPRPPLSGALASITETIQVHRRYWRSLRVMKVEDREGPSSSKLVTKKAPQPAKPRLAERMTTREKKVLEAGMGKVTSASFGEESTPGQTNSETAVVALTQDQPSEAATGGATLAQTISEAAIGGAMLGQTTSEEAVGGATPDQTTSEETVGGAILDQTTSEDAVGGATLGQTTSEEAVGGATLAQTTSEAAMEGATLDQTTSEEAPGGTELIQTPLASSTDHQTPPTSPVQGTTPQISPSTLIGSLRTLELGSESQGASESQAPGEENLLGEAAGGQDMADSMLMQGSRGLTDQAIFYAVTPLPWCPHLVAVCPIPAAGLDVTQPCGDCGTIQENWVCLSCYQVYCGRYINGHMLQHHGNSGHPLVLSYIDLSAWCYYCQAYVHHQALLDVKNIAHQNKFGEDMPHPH", "assay": "biochemical", "text": "(§1) The HDACs in vitro activities of recombinant human HDAC 1, 2, 4, 6 and 8 (BPS Biosciences) were detected by fluorigenic release of 7-amino-4-methylcoumarin from substrate upon deacetylase enzymatic activity."}, "recombinant human HDAC1": {"target": "recombinant human HDAC1 (Homo sapiens, UniProt Q13547)", "sequence (Q13547 whole entry)": "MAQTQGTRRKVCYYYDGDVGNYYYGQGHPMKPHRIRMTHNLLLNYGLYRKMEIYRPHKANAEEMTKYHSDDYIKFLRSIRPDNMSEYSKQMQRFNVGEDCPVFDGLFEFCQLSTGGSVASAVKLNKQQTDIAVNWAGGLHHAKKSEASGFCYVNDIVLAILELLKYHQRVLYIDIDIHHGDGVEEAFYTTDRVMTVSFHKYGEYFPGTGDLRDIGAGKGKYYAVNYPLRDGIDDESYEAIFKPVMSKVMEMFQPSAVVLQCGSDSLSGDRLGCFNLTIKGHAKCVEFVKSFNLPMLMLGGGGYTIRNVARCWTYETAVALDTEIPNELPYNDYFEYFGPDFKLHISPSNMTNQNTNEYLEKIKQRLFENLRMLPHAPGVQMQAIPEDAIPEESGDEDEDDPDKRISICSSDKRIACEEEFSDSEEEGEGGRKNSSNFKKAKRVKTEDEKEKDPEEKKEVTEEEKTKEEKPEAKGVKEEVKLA", "assay": "biochemical", "text": "as §1"}}}
{"smiles": "O=C(C=Cc1ccc2c(c1)CCN2S(=O)(=O)c1ccccc1)NO", "note": "[MPT0E028, 3-(1-benzenesulfonyl-2,3-dihydro-1H-indol-5-yl)-N-hydroxy-acrylamide]", "values": [{"measurement": "sub-G1 population (flow cytometry)", "setting": "HCT116 cells", "value": "increased the number of cells in the sub-G1 phase of the cell cycle"}, {"measurement": "GI50", "setting": "HUVEC; HUVEC (human normal cells), crystal violet assay, 48 h", "value": "3570 ± 450", "unit": "nM"}, {"measurement": "folds less sensitive against normal cells (safety margin)", "setting": "HUVEC; HUVEC versus cancer cells", "value": "20–40 folds"}, {"measurement": "No. of CR (complete regression)", "setting": "[1]; 50 mg/kg po qd", "value": 0}, {"measurement": "%TGD (tumor growth delay)", "setting": "[1]; 50 mg/kg po qd", "value": 0, "unit": "%"}, {"measurement": "T-C", "setting": "[1]; 50 mg/kg po qd", "value": 0, "unit": "days"}, {"measurement": "Median TTE", "setting": "[1]; 100 mg/kg po qd to endpoint 1200 mm^3", "value": 19.2, "unit": "days"}, {"measurement": "No. of CR (complete regression)", "setting": "[1]; 100 mg/kg po qd", "value": 1}, {"measurement": "%TGD (tumor growth delay)", "setting": "[1]; 100 mg/kg po qd", "value": 16, "unit": "%"}, {"measurement": "T-C", "setting": "[1]; 100 mg/kg po qd", "value": 2.6, "unit": "days"}, {"measurement": "Median TTE", "setting": "[1]; 200 mg/kg po qd to endpoint 1200 mm^3", "value": 36.9, "unit": "days"}, {"measurement": "No. of CR (complete regression)", "setting": "[1]; 200 mg/kg po qd", "value": 3}, {"measurement": "%TGD (tumor growth delay)", "setting": "[1]; 200 mg/kg po qd", "value": 122, "unit": "%"}, {"measurement": "T-C", "setting": "[1]; 200 mg/kg po qd", "value": 20, "unit": "days"}, {"measurement": "IC50", "setting": "recombinant human HDAC6", "value": "29.5 ± 6.4", "unit": "nM"}, {"measurement": "IC50", "setting": "recombinant human HDAC1", "value": "53 ± 12", "unit": "nM"}]}
